Experimental data taken from patent US20250288704A1, “CXCR4-LIGANDS FOR DIAGNOSTIC AND THERAPEUTIC USE AND PRECURSORS THEREOF” (priority 2021, published 2025).
Non-standard residues stand in square brackets, D forms with d. Residues, ends and D or L forms follow the SMILES beside them. Groups on a side chain read outwards from the residue. *: point of attachment. X9 = NCCNCC(CNCCN)C(=O)NC[C@@H](NC(=O)CC[C@@H](NC(=O)N[C@H](CCC(=O)O)C(=O)O)C(=O)O)C(=O)*; X8 = NCCNCC(CNCCN)C(=O)NC[C@@H](NC(=O)CCC(NC(=O)N[C@H](CCC(=O)O)C(=O)O)C(=O)O)C(=O)*; 2Nal = N[C@@H](Cc1ccc2ccccc2c1)C(=O)O; dNMeOrn = CN[C@H](CCCN)C(=O)O; 4Abz = Nc1ccc(C(=O)O)cc1; dDap = NC[C@@H](N)C(=O)O; Ahx = NCCCCCC(=O)O

Experiments:
[1] = test system: CXCR4-expressing Chem_1 cells; assay: Determination of internalization, dual tracer with 125I-Fc-131; type: cell-based; conditions: for Cell-bound [%] / Internalized [%]: of total cellular activity
How it was run: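 Receptor blockade used AMD3100 (1 mM stock) versus medium-treated wells, triplicate per time point, in Chem_1 cells cultured at 37 °C in DMEM-F12/10% FBS. Activity of supernatant, surface-bound and internalized (1 M NaOH) fractions measured by γ-counter, corrected for non-specific uptake and normalised to standard ligand.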

[2] = Octanol/PBS partition coefficient (logD7.4); type: physicochemical; conditions: n-octanol/PBS pH 7.4, radiolabeled compound
Description: The tubes were vortexed at maximum speed for 3 min to ensure equilibrium before centrifugation at 15.000×g for 5 min on a Biofuge 15 from Heraeus Holding GmbH (Osterode, Germany). An aliquot of 100 μL of each fraction was measured in the γ-counter and the log D7.4 calculated as follows: […]

CXCR4 = CXCR4 (Homo sapiens, UniProt P61073); assay: Determination of inverse IC50 (invIC50): radiolabeled peptide displaced by Fc-131 on Jurkat cells
Sequence of CXCR4 (P61073 whole entry): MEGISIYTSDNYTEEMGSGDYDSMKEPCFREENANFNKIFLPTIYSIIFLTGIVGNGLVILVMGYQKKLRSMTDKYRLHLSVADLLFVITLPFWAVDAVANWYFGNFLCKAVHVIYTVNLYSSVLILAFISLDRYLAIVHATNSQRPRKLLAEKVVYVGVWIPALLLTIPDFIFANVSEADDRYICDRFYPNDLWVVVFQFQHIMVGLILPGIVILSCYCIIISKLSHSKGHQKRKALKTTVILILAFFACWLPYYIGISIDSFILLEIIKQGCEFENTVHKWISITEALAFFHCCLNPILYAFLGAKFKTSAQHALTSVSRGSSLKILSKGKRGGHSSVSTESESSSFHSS

[3] = test system: Jurkat tumor-bearing CB-17 SCID mice; assay: Biodistribution in Jurkat tumor-bearing CB-17 SCID mice; type: in vivo; conditions: 1 h p.i., Jurkat xenograft, CB-17 SCID female mice
How it was run: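 Radioligand (125I, 177Lu, 99mTc, 18F or 68Ga label; roughly 0.5-20 MBq, 0.02-0.20 nmol) was injected intravenously via tail vein. Hosts were CB17-SCID mice with subcutaneous Jurkat tumors of 5-8 mm, 4-10 weeks post-inoculation. Dissected organs were weighed and counted in a γ-counter.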

Compound	Internalized in relation to 125I-Fc-131 [%] ([1]; 30 min)	Cell-bound [%] ([1]; 30 min)	Internalized [%] ([1]; 30 min)	Internalization [% Fc-131] ([1]; 90 min)	Internalized in relation to 125I-Fc-131 [%] ([1]; 90 min)	Cell-bound [%] ([1]; 90 min)	Internalized [%] ([1]; 90 min)	logD7.4 [2]	IC50 (CXCR4) [nM]	further results
C[C@@H](NC(=O)[C@@H](CCCNC(=N)N)NC(=O)[C@@H](CN)NC(=O)[C@@H](CNC(=O)C(CNCCN)CNCCN)NC(=O)CCC(NC(=O)N[C@H](CCC(=O)O)C(=O)O)C(=O)O)C(=O)Nc1ccc(C(=O)NCCC[C@@H]2C(=O)N[C@@H](CCCNC(=N)N)C(=O)N[C@@H](Cc3ccc4ccccc4c3)C(=O)NCC(=O)N[C@H](Cc3ccc(O)cc3)C(=O)N2C)cc1 (some centres unmarked) [Tc-CXCR4-15] (cyclo([2Nal]G[dY][dNMeOrn]([4Abz-dA-dR-dDap-X8])R))	214 ± 11.7	4.35 ± 0.16	12.6 ± 0.34	232 (90 min) % Fc-131	232 ± 15.3	3.42 ± 0.27	17.9 ± 1.06	−3.60 ± 0.02 (8)	3.69 ± 1.32	–
C[C@@H](NC(=O)[C@@H](CCCNC(=N)N)NC(=O)[C@@H](CN)NC(=O)CCCCCNC(=O)[C@@H](CNC(=O)C(CNCCN)CNCCN)NC(=O)CC[C@@H](NC(=O)N[C@H](CCC(=O)O)C(=O)O)C(=O)O)C(=O)Nc1ccc(C(=O)NCCC[C@@H]2C(=O)N[C@@H](CCCNC(=N)N)C(=O)N[C@@H](Cc3ccc4ccccc4c3)C(=O)NCC(=O)N[C@H](Cc3ccc(O)cc3)C(=O)N2C)cc1 [Tc-CXCR4-16] (cyclo([2Nal]G[dY][dNMeOrn]([4Abz-dA-dR-dDap-Ahx-X9])R))	230 ± 10.7	3.36 ± 0.45	15.0 ± 0.31	284 (90 min) % Fc-131	284 ± 10.4	3.53 ± 0.21	19.8 ± 0.15	−2.70 ± 0.04 (8)	6.08 ± 1.03	–
CC[C@H](C)[C@@H]([C@@H](CC(=O)N1CCC[C@H]1[C@H](OC)[C@@H](C)C(=O)N[C@H](C)C(O)c1ccccc1)OC)N(C)C(=O)[C@@H](NC(=O)[C@H](C(C)C)N(C)C(=O)OCc1ccc(NC(=O)[C@H](CCCNC(N)=O)NC(=O)[C@@H](NC(=O)CCCCCN2C(=O)CC(SCC[C@@H](N)C(=O)N[C@H](CCCNC(=N)N)C(=O)N[C@H](C)C(=O)Nc3ccc(C(=O)NCCC[C@@H]4C(=O)N[C@@H](CCCNC(=N)N)C(=O)N[C@@H](Cc5ccc6ccccc6c5)C(=O)NCC(=O)N[C@H](Cc5ccc(O)cc5)C(=O)N4C)cc3)C2=O)C(C)C)cc1)C(C)C (some centres unmarked) [^125I-CXCR4-MMAE −2]	–	2.09 ± 0.64	7.78 ± 0.58	–	–	–	–	–	–	Cell-bound [%] ([1]; 10 min): 1.56 ± 0.78%; Internalized [%] ([1]; 10 min): 2.55 ± 0.34%; Cell-bound [%] ([1]; 60 min): 0.73 ± 0.54%; Internalized [%] ([1]; 60 min): 14.6 ± 0.89%; Cell-bound [%] ([1]; 120 min): 0.27 ± 0.35%; Internalized [%] ([1]; 120 min): 27.9 ± 1.14%; % iD/g Blood ([3]; Blood): 2.28 % iD/g; % iD/g Bone ([3]; Bone): 0.80 % iD/g; % iD/g Heart ([3]; Heart): 1.31 % iD/g; % iD/g Intestine ([3]; Intestine): 1.13 % iD/g; % iD/g Kidney ([3]; Kidney): 18.3 % iD/g; % iD/g Liver ([3]; Liver): 27.8 % iD/g; % iD/g Lung ([3]; Lung): 3.67 % iD/g; % iD/g Muscle ([3]; Muscle): 0.33 % iD/g; % iD/g Pancreas ([3]; Pancreas): 0.80 % iD/g; % iD/g Spleen ([3]; Spleen): 4.31 % iD/g; % iD/g Stomach ([3]; Stomach): 1.85 % iD/g; % iD/g Tumor ([3]; Tumor): 2.41 % iD/g
CPCR4-HYNIC [reference compound]	–	–	–	29 (90 min) % Fc-131	–	–	–	−1.84 ± 0.01 (8)	–	invIC50 [nM] (CXCR4; radiolabeled compound displaced by Fc-131, Jurkat cells): No
